The source of these data is patent US4061737A, “Method for stimulating release of prolactin” (American Home Products Corporation, priority 1976, dated 1977).

The subject of one assay is mouse vas deferens. The settings on record: cited from earlier work.
The subject of a further assay is guinea pig ileum. The settings on record: cited from earlier work.
The conditions of assay [1]: in vivo; cited from earlier work.
Assay [2] concerns Male Charles River CD rats. Nature of the assay: Prolactin plasma levels in rats 15 minutes after enkephalin injection (radioimmunoassay). Format: in vivo, rat. Particulars: for Change in prolactin levels upon injection (in words): 5 mg/kg., subcutaneous or intravenous. The protocol:
Male Charles River CD rats were injected with the enkephalin (in saline) or saline alone either subcutaneously or intravenously via the femoral vein. Fifteen minutes later the animals were decapitated and blood collected (12 mg. versene and 6000 units of Trasylol added per tube). Each plasma sample was assayed for prolactin in quadruplicate by specific double antibody radioimmunoassays, using NIAMDD reagents and the procedure of Neill and Reichert, Endocrinology, 88, 548 (1971).

A further assay concerns rat pituitary cells. Nature of the assay: Prolactin release in monolayer cultures of rat pituitary cells. The format is cell-based. Particulars: for Prolactin release versus control (in words): all levels from 5 ng/ml to 50 μg/ml; for Prolactin Release (mean ± SEM): 3 hours at 37° C., control 197 ± 13. The protocol:
Monolayer cultures of enzymatically dispersed pituitary cells were prepared from male rats, using Eagle's minimal essential medium for growth. After incubation in triplicate dishes for 3 hours at 37° C. in 95% air: 5% CO2, the supernatant from each dish was assayed for prolactin in duplicate.

For another assay, the system named is opiate receptor sites. Particulars: cited from earlier work.
[3] abbreviates: Experiment 2, 5mg/kg. SC, 15 minutes after injection, control 40 ± 3.

For `CN1CC[C@]23c4c5ccc(O)c4O[C@H]2[C@@H](O)C=C[C@H]3[C@H]1C5` [morphine, reference compound], in the assay with mouse vas deferens, the “Contractions of mouse vas deferens (in words)” value was “also elicited by morphine”. Further, the “Contractions of guinea pig ileum (in words)” value in the assay on guinea pig ileum is recorded as “also elicited by morphine”. In addition, in assay [1], the “Prolactin levels (in words)” value is listed as “can raise prolactin levels”.
As for `CSCC[C@H](NC(=O)[C@H](Cc1ccccc1)NC(=O)CNC(=O)CNC(=O)[C@@H](N)Cc1ccc(O)cc1)C(=O)O` [Met-Enkephalin, H-Tyr-Gly-Gly-Phe-Met-OH], the “Change in prolactin levels upon injection (in words)” value in assay [2] is given as “consistent, statistically significant increase”. The “Prolactin plasma level (mean ± SEM)” value in assay [2] (setting [3]) turned out to be 49 ± 3 ng/mL; in assay [2] (Experiment 3, 5mg/kg. IV, 15 minutes after injection, control 20 ± 1), 24 ± 1 ng/mL; in assay [2] (rat, in vivo) it was 43 ± 3. Besides, the “Prolactin release versus control (in words)” value with rat pituitary cells is “significantly increased”. The “Prolactin release compared with leucine-enkephalin (in words)” value with rat pituitary cells (difference statistically significant at 50 μg/ml and 500 ng/ml) is recorded as “greater release of prolactin than leucine-enkephalin”. Moreover, the “Prolactin Release (mean ± SEM)” value was determined as 261 ± 15 ng/mL with rat pituitary cells (enkephalin 5 ng/ml); 257 ± 14 ng/mL with rat pituitary cells (enkephalin 50 ng/ml); 305 ± 14 ng/mL with rat pituitary cells (enkephalin 500 ng/ml); 255 ± 10 ng/mL with rat pituitary cells (enkephalin 5 μg/ml); 307 ± 8 ng/mL with rat pituitary cells (enkephalin 50 μg/ml). Moreover, the “Contractions of mouse vas deferens (in words)” value in the assay with mouse vas deferens was “inhibit”. Further, the “Contractions of guinea pig ileum (in words)” value in the assay with guinea pig ileum was “inhibit”. For the same molecule, the “Stereospecific binding of 3H-naloxone to guinea pig brain (in words)” value in the assay with opiate receptor sites is “inhibit”.
Turning to `CC(C)C[C@H](NC(=O)[C@H](Cc1ccccc1)NC(=O)CNC(=O)CNC(=O)[C@@H](N)Cc1ccc(O)cc1)C(=O)O` [Leu-Enkephalin, H-Tyr-Gly-Gly-Phe-Leu-OH], the “Change in prolactin levels upon injection (in words)” value in assay [2] is recorded as “more variable”. The “Prolactin plasma level (mean ± SEM)” value in assay [2] (Experiment 1, 5mg/kg. SC, 15 minutes after injection, control 29 ± 3) was determined as 40 ± 6 ng/mL; in assay [2] (setting [3]), 40 ± 3 ng/mL; in assay [2] (Experiment 4, 5mg/kg. IV, 15 minutes after injection, control 43 ± 7), 29 ± 5 ng/mL; in assay [2] (Experiment 5, 5mg/kg. IV, 15 minutes after injection, control 31 ± 3), 55 ± 5 ng/mL; in assay [2] (Experiment 6, 5mg/kg. IV, 15 minutes after injection, control 47 ± 5), 59 ± 11 ng/mL; in assay [2] (Experiment 8, 5mg/kg. IV, 15 minutes after injection, control 63 ± 10) it was 61 ± 10 ng/mL. Moreover, in the assay with rat pituitary cells, the “Prolactin release versus control (in words)” value is given as “significantly increased”. Also, the “Prolactin Release (mean ± SEM)” value in the assay with rat pituitary cells (enkephalin 5 ng/ml) worked out at 247 ± 7 ng/mL; with rat pituitary cells (enkephalin 50 ng/ml), 254 ± 14 ng/mL; in the assay with rat pituitary cells (enkephalin 500 ng/ml), 253 ± 18 ng/mL; in the assay with rat pituitary cells (enkephalin 5 μg/ml), 244 ± 10 ng/mL; in the assay with rat pituitary cells (enkephalin 50 μg/ml) it was 260 ± 15 ng/mL. In addition, in the assay on mouse vas deferens, the “Contractions of mouse vas deferens (in words)” value is recorded as “inhibit”. Moreover, the “Contractions of guinea pig ileum (in words)” value in the assay with guinea pig ileum was “inhibit”. Further, the “Stereospecific binding of 3H-naloxone to guinea pig brain (in words)” value in the assay with opiate receptor sites is “inhibit”.
